Measurements reported in BindingDB's records for doi:10.7270/Q24F1P57 (Nmmlsc, 2009).
pEC50: −log10 of the molar value.

Biological target: Induced myeloid leukemia cell differentiation protein Mcl-1 (Homo sapiens, UniProt Q07820)
Test: Mcl-1/Bim interaction regulators – biochemical, bead-based flow cytometry, multiplex, HTS hits, confirmation (AID 2086)
Conditions: not given

Chain of Induced myeloid leukemia cell differentiation protein Mcl-1 (Q07820 whole entry): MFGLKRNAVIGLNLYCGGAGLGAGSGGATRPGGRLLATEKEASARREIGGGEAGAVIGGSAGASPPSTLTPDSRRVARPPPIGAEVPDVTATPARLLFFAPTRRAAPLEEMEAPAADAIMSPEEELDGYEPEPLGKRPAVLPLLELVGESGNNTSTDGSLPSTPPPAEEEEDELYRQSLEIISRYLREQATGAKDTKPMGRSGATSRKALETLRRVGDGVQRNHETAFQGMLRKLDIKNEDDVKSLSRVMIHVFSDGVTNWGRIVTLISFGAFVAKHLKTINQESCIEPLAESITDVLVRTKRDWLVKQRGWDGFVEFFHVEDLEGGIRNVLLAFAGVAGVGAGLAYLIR

How did the pEC50 turn out when `Cc1ccc(C=NNC(=O)CSc2nnc(-c3ccc(Cl)cc3)n2-c2ccccc2)o1` [SMR000218122] was run?
The pEC50 was 5.11.

Same assay, conditions: inactive by the depositor's call

How did the pEC50 turn out when `O=C(NCc1ccccc1)c1ccc2nc(-c3ccco3)c(-c3ccco3)nc2c1` [2,3-bis(furan-2-yl)-N-(phenylmethyl)quinoxaline-6-carboxamide] was run?
Its pEC50 is 4.80.

`COc1ccc(N2C(=O)C(Cl)=C(Oc3cccc(OC)c3)C2=O)cc1` [3-chloro-4-(3-methoxyphenoxy)-1-(4-methoxyphenyl)-1H-pyrrole-2,5-dione] was tested. Which pEC50 did it give?
The pEC50 was 5.78.

`CNC1CCC(Br)CC(C(=O)C=Cc2cccc(OC)c2OC)C1=O` (centres undefined) [4-bromo-2-[(E)-3-(2,3-dimethoxyphenyl)-1-oxoprop-2-enyl]-7-(methylamino)-1-cycloheptanone] was tested. Which pEC50 did it give?
The pEC50 was 4.43.

With `O=C1NC(=O)C2(Cc3c(nc4ccccn4c3=O)N3CCCCCC32)C(=O)N1Cc1ccccc1` (centres undefined) [MLS000083668] as the molecule, how does the pEC50 read?
Its pEC50 is 5.50.

`COc1cc(/N=C2\SSNC2Cl)c(OC)cc1Cl` (centres undefined) [4-chloro-N-(4-chloro-2,5-dimethoxyphenyl)-5-dithiazolidinimine] was tested. Which pEC50 did it give?
Its pEC50 is 4.67.

`COc1ccc(CCNC(=O)c2ccc3nc(-c4ccco4)c(-c4ccco4)nc3c2)cc1OC` [N-[2-(3,4-dimethoxyphenyl)ethyl]-2,3-di-2-furylquinoxaline-6-carboxamide] was tested. Which pEC50 did it give?
Its pEC50 is 4.83.

How did the pEC50 turn out when `Cc1cc2nn(-c3cccc4ccccc34)nc2cc1N` [SMR000076237] was run?
The pEC50 was 5.65.

How did the pEC50 turn out when `Cc1ccc(-c2nc3c(c(=O)[nH]c(=O)n3Cc3ccccc3)n2C)o1` [7-methyl-8-(5-methyl-2-furanyl)-3-(phenylmethyl)purine-2,6-dione] was run?
Its pEC50 is 4.47.
